# Source: patent US7288564B2, “Indole derivatives” (Glaxo Group Limited, priority 2000, dated 2007)
# Target: T1, human EP4 receptor (Homo sapiens, UniProt P35408)
# Assay: Human EP4 Scintillation Proximity Assay (radioligand binding)
# Design: expressed in transfected cells; host or cells: CHO cells infected with Semliki Forest Virus (SFV-1) particles; membranes prepared
# Details: membranes of CHO cells expressing human EP4; 1.25 nM [3H]-prostaglandin E2; Cheng-Prusoff; read-out: pKi at EP4 receptors (converted)
# Experimental: Quantification of radioligand binding by scintillation proximity assay (SPA) is a long-established principle. Briefly, the affinity of compounds for a receptor is assessed by the specific competition between known quantities of radiolabelled ligand compound for that receptor. Increasing concentrations of compound reduce the amount of radiolabel that binds to the receptor. This gives rise to a diminishing scintillation signal from SPA beads coated with membranes that bear the receptor. The signal may be detected with a suitable scintillation counter and the data generated may be analysed with suitable curve-fitting software.
# The human EP4 SPA assay (hereafter referred to as ‘the assay’) utilises membranes prepared from Chinese Hamster Ovary (CHO cells) infected with Semliki Forest Virus (SFV). Genetically engineered SFV-1 viral particles containing the genetic sequence of the human EP4 receptor were used to infect CHO cells resulting in expression of th receptor protein in cellular membranes.
# Cells washed free of media are homogenised in a pH-buffered medium containing peptidase inhibitors. A suitable buffer is of the following composition: 50 mM HEPES, 1 mM EDTA, 25 μg/ml bacitracin, 100 μM leupeptin, 1 mM PMSF, 2 μM Pepstatin A, pH adjusted to 7.4 with KOH. Following removal of cell debris by a low-speed centrifugation, a pellet of membranes is prepared by a high-speed (48000 g) centrifugation of the resulting supernatant. Membrane suspensions such as that described may be stored at −80° C. until used.
# For assay, membranes expressing human EP4 receptors are diluted in a pH-buffered medium and mixed with SPA beads coated with a suitable substance to facilitate the adhesion of membranes to the beads. The concentrations of membrane protein and SPA beads chosen should result in SPA binding signal of at least 300 corrected counts per minute (CCPM) when tritiated radioligand at a concentration close to its Kd (affinity value) is combined with the mixture. Non-specific binding (nsb) may be determined by competition between the radiolabelled ligand and a saturating concentration of unlabelled ligand. In order to quantify the affinity of EP4 receptor ligands, compounds are diluted in a stepwise manner across the wells of a 96-well plate. Radioligand, compound, and unlabelled ligand are then added to a 96-well plate suitable for the measurement of SPA binding signals prior to the addition of bead/membrane mixture to initiate the binding reaction. Equilibrium may be achieved by incubation at room temperature for 120 minutes prior to scintillation counting. The data so generated may be analysed by means of a computerised curve-fitting routine in order to quantify the concentration of compound that displaces 50% of the specific radioligand binding (IC50). The affinity (pKi) of the compound may be calculated from the IC50 by application of the Cheng-Prusoff correction. Suitable reagents and protocols are: reaction buffer containing 50 mM HEPES, 10 mM MgCl2, pH adjusted to 7.4 with KOH; SPA beads coated with wheatgerm agglutinin; 1.25 nM [^3H]-prostaglandin E2 as radioligand; 10 μM prostaglandin E2 as unlabelled ligand; a three-fold dilution series of compound starting at 10 μM and ending at 0.3 nM is adequate.
# T1 sequence (P35408 whole entry): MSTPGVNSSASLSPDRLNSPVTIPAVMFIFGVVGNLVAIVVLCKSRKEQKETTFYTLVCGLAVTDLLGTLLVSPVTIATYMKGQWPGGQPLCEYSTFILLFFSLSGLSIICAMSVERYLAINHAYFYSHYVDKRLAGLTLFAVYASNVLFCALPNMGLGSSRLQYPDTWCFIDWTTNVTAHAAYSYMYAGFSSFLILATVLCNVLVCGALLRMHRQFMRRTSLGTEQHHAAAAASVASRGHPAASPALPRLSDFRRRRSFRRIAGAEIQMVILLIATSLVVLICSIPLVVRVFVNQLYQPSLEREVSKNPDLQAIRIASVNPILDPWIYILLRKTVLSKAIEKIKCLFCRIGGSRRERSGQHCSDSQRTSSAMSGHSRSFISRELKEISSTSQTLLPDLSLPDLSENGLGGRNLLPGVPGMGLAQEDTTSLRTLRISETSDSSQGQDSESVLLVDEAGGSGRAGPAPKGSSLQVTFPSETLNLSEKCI
row,Compound,Ki [nM]
1,"COc1ccc2[nH]c(C)c(CC(=O)Nc3cc(C)ccc3C(=O)O)c2c1 [Example 1, 2-{[(5-methoxy-2-methyl-1H-indol-3-yl)acetyl]amino}-4-methylbenzoic acid]",≤ 100
2,"Cc1ccc(C(=O)O)c(NC(=O)Cc2c[nH]c3ccccc23)c1 [Example 2, 2-[(1H-indol-3-ylacetyl)amino]-4-methylbenzoic acid]",≤ 100
3,"Cc1ccc(C(=O)O)c(NC(=O)Cc2c(C)[nH]c3ccccc23)c1 [Example 3, 4-methyl-2-{[(2-methyl-1H-indol-3-yl)acetyl]amino}benzoic acid]",≤ 100
4,"Cc1ccc(C(=O)O)c(NC(=O)Cc2c[nH]c3ccc(F)cc23)c1 [Example 4, 2-{[(5-fluoro-1H-indol-3-yl)acetyl]amino}-4-methylbenzoic acid]",≤ 100
5,"Cc1ccc(C(=O)O)c(NC(=O)Cc2c[nH]c3ccc(Br)cc23)c1 [Example 6, 2-{[(5-bromo-1H-indol-3-yl)acetyl]amino}-4-methylbenzoic acid]",≤ 100
6,"COc1ccc2[nH]cc(CC(=O)Nc3cc(C)ccc3C(=O)O)c2c1 [Example 7, 2-{[(5-methoxy-1H-indol-3-yl)acetyl]amino}-4-methylbenzoic acid]",≤ 100
7,"Cc1ccc(C(=O)O)c(NC(=O)Cc2c(-c3ccccc3)[nH]c3ccccc23)c1 [Example 9, 4-methyl-2-{[(2-phenyl-1H-indol-3-yl)acetyl]amino}benzoic acid]",≤ 100
8,"COc1ccc2[nH]c(C)c(CC(=O)Nc3cc(F)ccc3C(=O)O)c2c1 [Example 10, 4-fluoro-2-{[(5-methoxy-2-methyl-1H-indol-3-yl)acetyl]amino}benzoic acid]",≤ 100
9,"COc1ccc2[nH]c(C)c(CC(=O)Nc3cc(Cl)ccc3C(=O)O)c2c1 [Example 11, 4-chloro-2-{[(5-methoxy-2-methyl-1H-indol-3-yl)acetyl]amino}benzoic acid]",≤ 100

# Continued, values first:
row,Ki [nM],Compound
1,≤ 100,"COc1ccc2[nH]c(C)c(CC(=O)Nc3cc([N+](=O)[O-])ccc3C(=O)O)c2c1 [Example 12, 2-{[(5-methoxy-2-methyl-1H-indol-3-yl)acetyl]amino}-4-nitrobenzoic acid]"
2,≤ 100,"COc1ccc2[nH]c(C)c(CC(=O)Nc3ccccc3C(=O)O)c2c1 [Example 13, 2-{[(5-methoxy-2-methyl-1H-indol-3-yl)acetyl]amino}benzoic acid]"
3,≤ 100,"COc1ccc2[nH]c(C)c(CC(=O)Nc3cc(C(F)(F)F)ccc3C(=O)O)c2c1 [Example 17, 2-{[(5-methoxy-2-methyl-1H-indol-3-yl)acetyl]amino}-4-(trifluoromethyl)benzoic acid]"
4,≤ 100,"COc1cc2[nH]c(C)c(CC(=O)Nc3cc(C)ccc3C(=O)O)c2cc1OC [Example 20, 2-{[(5,6-dimethoxy-2-methyl-1H-indol-3-yl)acetyl]amino}-4-methylbenzoic acid]"
5,≤ 100,"Cc1ccc(C(=O)O)c(NC(=O)Cc2c(C)[nH]c3ccc(Cl)cc23)c1 [Example 21, 2-{[(5-chloro-2-methyl-1H-indol-3-yl)acetyl]amino}-4-methylbenzoic acid]"
6,≤ 100,"CCc1ccc(C(=O)O)c(NC(=O)Cc2c(C)[nH]c3ccc(OC)cc23)c1 [Example 26, 4-ethyl-2-{[(5-methoxy-2-methyl-1H-indol-3-yl)acetyl]amino}benzoic acid]"

# Target: T1, human EP4 receptor
# Assay: [125I]cAMP Scintillation Proximity Assay (cAMP assay), EP4 antagonism
# Format: cell-based
# Design: host or cells: HEK-293 cells
# Details: HEK-293 cells expressing recombinant human EP4; method of Arunlakshana and Schild; read-out: pKb at EP4 receptors (converted)
# Experimental: The cAMP assay utilises HEK-293 cells expressing the recombinant human EP4 receptor, obtained from Receptor Biology, Inc. Beltsville, Md., USA. The cells were cultured in Dulbecco's Modified Eagle Medium—HAM F12 mix (DMEM-F12), containing 10% heat inactivated-foetal bovine serum (FBS) and 2 mM L-glutamine. The cells were either passaged into fresh medium or used in an assay once 90% confluency as determined visually had been achieved.
# The cells were harvested by treatment with Versene, re-suspended in fresh culture medium and plated out to yield approximately 10,000 cells per well of a 96-well plate for overnight culture in culture medium additionally supplemented with 3 μM indomethacin. For assay, the culture medium was replaced with assay medium (DMEM-F12 containing 300 μM isobutylmethylxanthine (IBMX) and 3 μM indomethacin) and incubated for 30 minutes. Following this, antagonist was then added at various concentrations such that an entire agonist concentration-effect curve could be obtained in the presence of a single concentration of the antagonist. […] The amount of cAMP in each well was then determined by [^125I]cAMP scintillation proximity assay using a proprietary kit, obtained from Amersham, Buckinghamshire, UK, and according to the manufacturer's instructions.
# Data from cAMP assays were expressed as pmol cAMP per well. […]
row,Kb [nM],Compound
1,< 10,"COc1ccc2[nH]c(C)c(CC(=O)Nc3cc(C)ccc3C(=O)O)c2c1 [Example 1, 2-{[(5-methoxy-2-methyl-1H-indol-3-yl)acetyl]amino}-4-methylbenzoic acid]"
